According to patent US20240400560A1, “BICYCLIC HETEROCYCLIC DERIVATIVE HAVING VIRAL GROWTH INHIBITORY ACTIVITY AND PHARMACEUTICAL COMPOSITION CONTAINING SAME” (Shionogi & Co., Ltd., priority 2021, published 2024):
Read-outs that look alike come from different tables or passages of the source.

Legend:
[1] = tested on: SARS-CoV-2; experiment: Inhibitory activity of cytopathic effect (CPE) in HEK293T/ACE2-TMPRSS2 cells; type: cell-based; conditions: Severe acute respiratory syndrome coronavirus 2, HEK-293T, 72 h
[2] = target: SARS-CoV-2 3CL protease (Severe acute respiratory syndrome coronavirus 2, UniProt P0DTD1); experiment: Inhibitory activity test against SARS-CoV-2 3CL proteases; type: biochemical
[3] = HEK293T/ACE2-TMPRSS2 cells, cultured 3 days, CellTiter-Glo 2.0 luminescence, read-out: EC50 (50% SARS-CoV-2 infected cell death inhibitory concentration)
[4] = read-out: IC50 (50% SARS-CoV-2 3CL protease inhibitory concentration)
[5] = 50% SARS-CoV-2 infected cell death inhibitory concentration, HEK293T/ACE2-TMPRSS2 cells, CellTiter-Glo 2.0 after 3 days culture, read-out: EC50
[6] = IC50 (50% SARS-CoV-2 3CL protease inhibitory concentration)
[7] = read-out: EC50 (50% SARS-CoV-2 infected cell death inhibitory concentration)

Row | SMILES | EC50 [1, 3] [nM] | IC50 [2, 4] [nM] | EC50 [1, 5] [nM] | IC50 [2, 6] [nM] | EC50 [1, 7] [nM]
1 | COc1nc(N2CC[C@@H](O)C2)cc2c1c(=O)n(-c1cnc3cc(F)ccn13)c(=O)n2-c1ccc(F)c(Cl)c1 [Compound I-0745] | < 100 | < 100 |  |  | 
2 | COc1nc(N2CC[C@@H](C#N)C2)cc2c1c(=O)n(-c1cnc3cc(F)ccn13)c(=O)n2-c1ccc(F)c(C(F)F)c1 [Compound I-0958] | < 100 | < 100 |  |  | 
3 | COc1cc(-c2nc(C)ccc2Cl)cc2c1c(=O)n(Cc1ncn(C)n1)c(=O)n2Cc1cc(F)c(F)c(F)c1 [Compound I-0826] | < 100 | < 100 |  |  | 
4 | COc1nc(C(C)C)cc2c1c(=O)n(-c1cnc3cc(F)ccn13)c(=O)n2-c1ccc(F)c(Cl)c1 [Compound I-0976] | < 100 | < 100 |  |  | 
5 | C=Cc1nc2c(=O)n(Cc3ncn(C)n3)c(=O)n(Cc3cc(F)c(F)c(F)c3)c2cc1-c1cc(C#N)ccc1Cl [Compound I-0705] | < 100 | < 100 |  |  | 
6 | CNC(=O)c1ccc(Cl)c(-c2cc3c(nc2OC)c(=O)n(Cc2ncn(C)n2)c(=O)n3Cc2cc(F)c(F)c(Cl)c2)n1 [Compound I-0878] |  | 3.9 | 13.7 |  | 
7 | COc1nc(NC2CCCC2)cc2c1c(=O)n(-c1cnc3cc(F)ccn13)c(=O)n2-c1ccc(F)c(Cl)c1 [Compound I-1046] | < 100 |  |  | < 100 | 
8 | Cn1cnc(Cn2c(=O)c3nc(OCC#N)c(-c4cc(C#N)ccc4Cl)cc3n(Cc3cc(F)c(F)c(F)c3)c2=O)n1 [Compound I-0685] |  | 28 | 82.2 |  | 
9 | [2H]C([2H])([2H])O[C@@H]1CCN(c2cc3c(c(OC)n2)c(=O)n(-c2cncc(C)c2)c(=O)n3-c2ccc(F)c(Cl)c2)C1 [Compound I-0937] |  | 1.3 | 5.56 |  | 
10 | COc1nc(N2CCC(F)(F)C2)cc2c1c(=O)n(-c1cncc(C(F)F)c1)c(=O)n2-c1ccc(F)c(Cl)c1 [Compound I-1018] | < 100 | < 100 |  |  | 
11 | COc1nc2c(=O)n(Cc3ncn(C)n3)c(=O)n(Cc3ccc(F)c(Cl)c3)c2cc1-c1cc(C#N)ccc1Cl [Compound I-0726] | < 100 | < 100 |  |  | 
12 | Cn1cnc(Cn2c(=O)c3c(cc(-c4cc(C#N)ccc4Cl)n4ccnc34)n(Cc3cc(F)c(F)c(F)c3)c2=O)n1 [Compound I-0642] |  | 3 | 640 |  | 
13 | COC[C@H]1CCCN1c1cc2c(c(OC)n1)c(=O)n(-c1cnc3cc(F)ccn13)c(=O)n2-c1ccc(F)c(Cl)c1 [Compound I-1050] | < 100 | < 100 |  |  | 
14 | Cn1cnc(Cn2c(=O)c3c4c(c(-c5cc(C#N)ccc5Cl)cc3n(Cc3cc(F)c(F)c(F)c3)c2=O)[C@H](O)CO4)n1 [Compound I-0865] | 100 to 1000 | < 100 |  |  | 
15 | Cn1cnc(Cn2c(=O)c3ncc(N4C[C@H]5C[C@@H]4CN5)nc3n(Cc3cc(F)c(F)c(F)c3)c2=O)n1 [Compound I-0684] |  | 370 | 4580 |  | 
16 | CCNC(=O)[C@@H]1CCN(c2cc3c(c(OC)n2)c(=O)n(-c2cnc4cc(F)ccn24)c(=O)n3-c2ccc(F)c(Cl)c2)C1 [Compound I-0626] |  | 14 | 55.2 |  | 
17 | COc1cc(N2CCCC2)cc2c1c(=O)n(Cc1ncn(C)n1)c(=O)n2Cc1cc(Cl)ccc1Cl [Compound I-0784] | 100 to 1000 | < 100 |  |  | 
18 | COc1nc(N2CCC(C)(O)C2)cc2c1c(=O)n(-c1cnc3cc(F)ccn13)c(=O)n2-c1ccc(F)c(Cl)c1 (stereo not shown) [Compound I-1043] | < 100 | < 100 |  |  | 
19 | [2H]C([2H])([2H])O[C@@H]1CCN(c2cc3c(c(OC)n2)c(=O)n(-c2cc(C)cnn2)c(=O)n3-c2ccc(F)c(Cl)c2)C1 [Compound I-0972] | < 100 | < 100 |  |  | 
20 | CCN(C)c1cc2c(c(OC)n1)c(=O)n(-c1cnc3cc(F)ccn13)c(=O)n2-c1ccc(F)c(Cl)c1 [Compound I-0993] | < 100 | < 100 |  |  | 

Row | SMILES | EC50 [1, 3] [nM] | IC50 [2, 4] [nM] | EC50 [1, 5] [nM] | IC50 [2, 6] [nM] | EC50 [1, 7] [nM]
21 | COc1nc2c(=O)n(Cc3ncn(C)n3)c(=O)n(Cc3cc(F)c(F)c(Cl)c3)c2cc1-c1nc(C(=O)NC2COC2)ccc1Cl [Compound I-0885] | < 100 | < 100 |  |  | 
22 | COc1nc(N2CCC(C)(O)C2)cc2c1c(=O)n(-c1cncc(Cl)c1)c(=O)n2-c1ccc(F)c(Cl)c1 (stereo not shown) [Compound I-1010] | < 100 | < 100 |  |  | 
23 | COc1nc(N2CCC(S(C)(=O)=O)C2)cc2c1c(=O)n(-c1cncc(Cl)c1)c(=O)n2-c1ccc(F)c(Cl)c1 (stereo not shown) [Compound I-0974] | < 100 | < 100 |  |  | 
24 | COc1cc(N2[C@@H]3CC[C@H]2CNC3)cc2c1c(=O)n(-c1cnc3ccccn13)c(=O)n2Cc1cc(F)c(F)c(F)c1 [Compound I-0666] |  |  |  | < 100 | 100 to 1000
25 | Cn1cnc(Cn2c(=O)c3c4nccnc4c(N4CC(F)C4)cc3n(Cc3cc(F)c(F)c(Cl)c3)c2=O)n1 [Compound I-0573] | < 100 | < 100 |  |  | 
26 | O=c1c2cnc(N3[C@@H]4CC[C@H]3CNC4)cc2n(Cc2cc(F)c(F)c(Cl)c2)c(=O)n1-c1cnc2ccccn12 [Compound I-0547] |  |  |  | < 100 | < 100
27 | COc1nc2c(=O)n(Cc3ncn(C)n3)c(=O)n(Cc3cc(Cl)ccc3C)c2cc1-c1cc(C#N)ccc1Cl [Compound I-0717] | < 100 | < 100 |  |  | 
28 | Cn1c(-c2cc(C#N)ccc2Cl)cc2c(c1=O)c(=O)n(-c1cnc3ccc(F)cn13)c(=O)n2Cc1cc(F)c(F)c(F)c1 [Compound I-0681] | < 100 | < 100 |  |  | 
29 | COc1nc(N2C[C@@H]3C[C@H]2CO3)cc2c1c(=O)n(-c1cnc3cc(F)ccn13)c(=O)n2-c1ccc(F)c(Cl)c1 [Compound I-0943] | < 100 | < 100 |  |  | 
30 | COc1nc(N2CC[C@@H](C#N)C2)cc2c1c(=O)n(-c1cncc(C#N)c1)c(=O)n2-c1ccc(F)c(Cl)c1 [Compound I-0939] | < 100 | < 100 |  |  | 
31 | [2H]C([2H])([2H])O[C@@H]1CCN(c2cc3c(c(OC)n2)c(=O)n(-c2cncc(OC(F)F)c2)c(=O)n3-c2ccc(F)c(F)c2)C1 [Compound I-1038] | < 100 | < 100 |  |  | 
32 | Cn1cnc(Cn2c(=O)c3c4c(c(-c5cnccc5Cl)cc3n(Cc3cc(F)c(F)c(Cl)c3)c2=O)CCO4)n1 [Compound I-0563] | < 100 | < 100 |  |  | 
33 | CCCn1c(-c2cc(C#N)ccc2Cl)cc2c(c1=O)c(=O)n(-c1cncc(Cl)c1)c(=O)n2Cc1cc(F)c(F)c(F)c1 [Compound I-0686] |  | 1.7 | 22.4 |  | 
34 | Cn1cnc(Cn2c(=O)c3c(cc(-c4cc(C#N)ccc4Cl)n4ncnc34)n(Cc3cc(F)c(F)c(F)c3)c2=O)n1 [Compound I-0645] | 100 to 1000 | 100 to 1000 |  |  | 
35 | N#Cc1ccc(Cl)c(-c2cc3c(c4c2CCO4)c(=O)n(Cc2ncccn2)c(=O)n3Cc2cc(F)c(F)c(F)c2)c1 [Compound I-0442] |  | < 100 |  |  | 
36 | COc1cc(-c2cc(CC(=O)NCCN(C)C)ccc2Cl)cc2c1c(=O)n(-c1cncc(Cl)c1)c(=O)n2Cc1cc(F)c(F)c(F)c1 [Compound I-0204] |  | < 100 |  |  | 
37 | COc1cc(-c2cc(N=S(C)(C)=O)ccc2Cl)cc2c1c(=O)n(-c1cncc(Cl)c1)c(=O)n2Cc1cc(F)c(F)c(F)c1 [Compound I-0210] |  | 28 |  |  | 
38 | Cn1cnc(Cn2c(=O)c3c4occc4c(-c4cc(C#N)ccc4Cl)cc3n(Cc3cc(F)c(F)c(F)c3)c2=O)n1 [Compound I-0473] |  | 4.1 |  |  | 
39 | Cn1cnc(Cn2c(=O)c3c(F)cc(-c4cc5cn[nH]c5cc4Cl)c(F)c3n(Cc3cc(F)c(F)c(F)c3)c2=O)n1 [Compound I-0006] |  | < 100 |  |  | 
